Reference: patent publication US6583120B1, “Erythromycin derivative with antibiotic activity” (Zambon Group S.A., priority 1998, dated 2003)
≈ marks a conversion by molar mass, not a printed value.

Tests used:
Branhamella catarrhalis = experiment: In vitro antibacterial activity (MIC), Gram-negative; conditions: for MIC Range: 5 strains tested; for MIC50 / MIC90: Moraxella catarrhalis
Streptococcus agalactiae = experiment: In vitro antibacterial activity (MIC), erythromycin-sensitive strains; conditions: for MIC Range: 4 strains tested, erythromycin-sensitive; for MIC50 / MIC90: Streptococcus agalactiae
Staphylococcus aureus = experiment: as above; conditions: for MIC Range: 13 strains tested, erythromycin-sensitive; for MIC50 / MIC90: Staphylococcus aureus
[1] = system: Streptococcus pyogenes C 203; experiment: In vivo therapeutic efficacy (PD50), experimental pulmonary infection in mice; conditions: for PD50: mice, pulmonary infection
Klebsiella pneumoniae = experiment: In vitro antibacterial activity (MIC), Gram-negative; conditions: for MIC Range: 6 strains tested; for MIC50 / MIC90: Klebsiella pneumoniae
Streptococcus group A = experiment: In vitro antibacterial activity (MIC), erythromycin-sensitive strains; conditions: for MIC Range: 15 strains tested, erythromycin-sensitive
Haemophilus influenzae = experiment: In vitro antibacterial activity (MIC), Gram-negative; conditions: for MIC Range: 11 strains tested; for MIC50 / MIC90: Haemophilus influenzae
Escherichia coli = experiment: as above; conditions: 3 strains tested
Streptococcus pneumoniae = experiment: In vitro antibacterial activity (MIC), erythromycin-sensitive strains; conditions: for MIC Range: 18 strains tested, erythromycin-sensitive; for MIC50 / MIC90: Streptococcus pneumoniae
[2] = system: Streptococcus pneumoniae UC 41; experiment: In vivo therapeutic efficacy (PD50), experimental pulmonary infection in mice; conditions: pulmonitis
[3] = system: recently clinically isolated, erythromycin-resistant strains of Streptococcus pneumoniae; experiment: In vitro antibacterial activity (MIC), broth-scalar dilution micromethod, erythromycin-resistant clinical isolates; conditions: 18 h, 37° C.
[4] = oral single dose 1 hour after the infection
[5] = oral single dose 24 hours before the infection
[6] = oral single dose 48 hours before the infection
[7] = oral single dose 72 hours before the infection
[8] = Strain 871, erythromycin-resistant
[9] = Strain 1035, erythromycin-resistant
[10] = Strain 1047, erythromycin-resistant
[11] = Strain 1051, erythromycin-resistant
[12] = Strain 1188, erythromycin-resistant
[13] = Strain 1392, erythromycin-resistant
[14] = Strain 9114, erythromycin-resistant
[15] = Strain 9117, erythromycin-resistant

SMILES	MIC Range (Branhamella catarrhalis)	MIC50 (Branhamella catarrhalis)	MIC90 (Branhamella catarrhalis)	MIC Range (Streptococcus agalactiae)	MIC50 (Streptococcus agalactiae)	MIC90 (Streptococcus agalactiae)	MIC Range (Staphylococcus aureus)	MIC50 (Staphylococcus aureus)	MIC90 (Staphylococcus aureus)	PD50 [1, 4]	MIC Range (Klebsiella pneumoniae)	MIC50 (Klebsiella pneumoniae)	MIC90 (Klebsiella pneumoniae)	MIC50 (Streptococcus group A)	MIC90 (Streptococcus group A)	MIC Range (Streptococcus group A)	MIC Range (Haemophilus influenzae)	MIC Range (Streptococcus pneumoniae)	MIC50 (Streptococcus pneumoniae)	MIC90 (Streptococcus pneumoniae)	also measured
CC[C@H]1OC(=O)[C@H](C)[C@@H](O[C@H]2C[C@@](C)(OC)[C@@H](O)[C@H](C)O2)[C@H](C)[C@@H](O[C@@H]2O[C@H](C)C[C@H](N(C)C)[C@H]2O)[C@](C)(OC)C[C@@H](C)C(=O)[C@H](C)[C@@H](O)[C@]1(C)O [Clarithromycin]	0.0078 to 0.0156 mg/L	0.0156 mg/L (≈ 0.0209 µM)	0.0156 mg/L (≈ 0.0209 µM)	0.0156 to 0.0625 mg/L	0.0312 mg/L (≈ 0.0417 µM)	0.0625 mg/L (≈ 0.0836 µM)	0.125 to 0.25 mg/L	0.25 mg/L (≈ 0.334 µM)	0.25 mg/L (≈ 0.334 µM)	7.38 µmol/kg	64 mg/L (≈ 85.6 µM)	64 mg/L (≈ 85.6 µM)	64 mg/L (≈ 85.6 µM)	0.0156 mg/L (≈ 0.0209 µM)	0.0156 mg/L (≈ 0.0209 µM)	0.0078 to 0.25 mg/L	2 to 8 mg/L	0.0039 to 0.125 mg/L	0.0156 mg/L (≈ 0.0209 µM)	0.0156 mg/L (≈ 0.0209 µM)	therapeutic efficacy (duration of action in vivo), in words ([1]; administered 24 hours before the infection): lose most of their efficacy; PD50 [1, 5]: >85.6 µmol/kg; MIC Range (Escherichia coli): 16 to 64 mg/L
CC[C@H]1OC(=O)[C@H](C)[C@@H](O[C@H]2C[C@@](C)(OC)[C@@H](O)[C@H](C)O2)[C@H](C)[C@@H](O[C@@H]2O[C@H](C)C[C@H](N(C)C)[C@H]2O)[C@](C)(O)C[C@@H](C)/C(=N\OCOCCOC)[C@H](C)[C@@H](O)[C@]1(C)O [Roxithromycin]	0.0312 to 0.0625 mg/L	0.0312 mg/L (≈ 0.0373 µM)	0.0625 mg/L (≈ 0.0747 µM)	0.0625 to 0.25 mg/L	0.125 mg/L (≈ 0.149 µM)	0.25 mg/L (≈ 0.299 µM)	0.25 to 1 mg/L	0.5 mg/L (≈ 0.597 µM)	1 mg/L (≈ 1.19 µM)	–	>64 mg/L	> 64 mg/L	> 64 mg/L	0.0625 mg/L (≈ 0.0747 µM)	0.0625 mg/L (≈ 0.0747 µM)	0.0312 to 1 mg/L	4 to 16 mg/L	0.0156 to 0.5 mg/L	0.0625 mg/L (≈ 0.0747 µM)	0.0625 mg/L (≈ 0.0747 µM)	MIC50 (Haemophilus influenzae): 8 mg/L (≈ 9.56 µM); MIC90 (Haemophilus influenzae): 8 mg/L (≈ 9.56 µM)
CC[C@H]1OC(=O)[C@H](C)[C@@H](OC2CC(C)(OC)C(O)C(C)O2)[C@H](C)[C@@H](OC2OC(C)CC(N(C)C)C2O)[C@](C)(O)C[C@@H](C)/C(=N\OCCNCCCCCCNCc2nccs2)[C@H](C)[C@@H](O)[C@]1(C)O (stereo partly shown) [Compound A]	0.0019 to 0.125 mg/L	0.125 mg/L (≈ 0.126 µM)	0.125 mg/L (≈ 0.126 µM)	0.0078 to 0.25 mg/L	0.0156 mg/L (≈ 0.0158 µM)	0.25 mg/L (≈ 0.253 µM)	0.25 to 1 mg/L	0.5 mg/L (≈ 0.506 µM)	0.5 mg/L (≈ 0.506 µM)	15.45 µmol/kg	16 to 32 mg/L	16 mg/L (≈ 16.2 µM)	32 mg/L (≈ 32.4 µM)	0.0156 mg/L (≈ 0.0158 µM)	0.0312 mg/L (≈ 0.0316 µM)	0.0078 to 0.5 mg/L	1 to 8 mg/L	0.0019 to 0.25 mg/L	0.0039 mg/L (≈ 0.00395 µM)	0.0156 mg/L (≈ 0.0158 µM)	therapeutic efficacy (duration of action in vivo), in words ([1]; 72 hours after administration): still effective; PD50 [1, 5]: 16.39 µmol/kg; PD50 [1, 6]: 25.90 µmol/kg; PD50 [1, 7]: 31.51 µmol/kg; PD50 [2, 5]: 16.39 µmol/kg; PD50 [2, 6]: 25.90 µmol/kg; MIC [3, 8]: 0.5 mg/L (≈ 0.506 µM); MIC [3, 9]: 2 mg/L (≈ 2.02 µM); MIC [3, 10]: 2 mg/L (≈ 2.02 µM); MIC [3, 11]: 1 mg/L (≈ 1.01 µM); MIC [3, 12]: 2 mg/L (≈ 2.02 µM); MIC [3, 13]: 4 mg/L (≈ 4.05 µM); MIC [3, 14]: 0.25 mg/L (≈ 0.253 µM); MIC [3, 15]: 0.25 mg/L (≈ 0.253 µM); MIC50 (Haemophilus influenzae): 4 mg/L (≈ 4.05 µM); MIC90 (Haemophilus influenzae): 4 mg/L (≈ 4.05 µM); MIC Range (Escherichia coli): 1 to 8 mg/L
CC[C@H]1OC(=O)[C@H](C)[C@@H](O[C@H]2C[C@@](C)(OC)[C@@H](O)[C@H](C)O2)[C@H](C)[C@@H](O[C@@H]2O[C@H](C)C[C@H](N(C)C)[C@H]2O)[C@](C)(O)C[C@@H](C)CN(C)[C@H](C)[C@@H](O)[C@]1(C)O [Azithromycin]	0.0078 to 0.0156 mg/L	0.0156 mg/L (≈ 0.0208 µM)	0.0156 mg/L (≈ 0.0208 µM)	0.0312 to 0.25 mg/L	0.0625 mg/L (≈ 0.0834 µM)	0.25 mg/L (≈ 0.334 µM)	0.5 to 1 mg/L	0.5 mg/L (≈ 0.668 µM)	1 mg/L (≈ 1.34 µM)	5.32 µmol/kg	4 to 8 mg/L	4 mg/L (≈ 5.34 µM)	8 mg/L (≈ 10.7 µM)	0.0625 mg/L (≈ 0.0834 µM)	0.125 mg/L (≈ 0.167 µM)	0.0625 to 1 mg/L	0.25 to 1 mg/L	0.0156 to 0.5 mg/L	0.0312 mg/L (≈ 0.0417 µM)	0.0625 mg/L (≈ 0.0834 µM)	therapeutic efficacy (duration of action in vivo), in words ([1]; 72 hours after administration): lose most of their efficacy; PD50 [1, 5]: 16.45 µmol/kg; PD50 [1, 6]: 34.13 µmol/kg; PD50 [1, 7]: >85.4 µmol/kg; PD50 [2, 5]: 16.45 µmol/kg; PD50 [2, 6]: 34.13 µmol/kg; MIC [3, 8]: 2 mg/L (≈ 2.67 µM); MIC [3, 9]: 2 mg/L (≈ 2.67 µM); MIC [3, 10]: 4 mg/L (≈ 5.34 µM); MIC [3, 11]: 64 mg/L (≈ 85.4 µM); MIC [3, 12]: 8 mg/L (≈ 10.7 µM); MIC [3, 13]: 16 mg/L (≈ 21.4 µM); MIC [3, 14]: 32 mg/L (≈ 42.7 µM); MIC [3, 15]: 64 mg/L (≈ 85.4 µM); MIC50 (Haemophilus influenzae): 0.5 mg/L (≈ 0.668 µM); MIC90 (Haemophilus influenzae): 1 mg/L (≈ 1.34 µM); MIC Range (Escherichia coli): 2 to 4 mg/L
